Data published in patent US11261177B2, “Benzoxazinone derivatives useful as herbicides” (REDAG CROP PROTECTION LTD, priority 2017, dated 2022).

Experiments:
Assay type in all cases: in vivo
[1] = tested on: Stellaria media—Chickweed; assay: Pre-emergence herbicidal assay, 96 cell trays, glasshouse; details: 168 h, second trial (Table 2), assessed 7 days after treatment, read-out: % control of plant growth; for pest or weed control at 200 g/ha: 0.2 kg/ha; for pest or weed control at 1000 g/ha: 1 kg/ha; for pest or weed control at 5000 g/ha: 5 kg/ha
Description: (§1) The compounds were screened at three concentrations (0.2, 1 and 5 kg/ha) against 2 weed species (Stellaria media—Chickweed and Lolium perenne). The seeds were sown in the cells of 96 cell trays (4-6 seeds per cell). For the pre-emergence assay, 75 μL of a suspension of the test compound, at the above doses, was added on top of the soil 1 day after sowing. For the post-emergence assay, the seedlings were sprayed with 200 μL of a suspension of the test compound two weeks after sowing. The formulation used is 25% acetone and 75% water/0.01% Tween 20. Each treatment was replicated three times. The plants were kept in a glasshouse (uncontrolled conditions) and assessed 7 days after treatment. A small number of compounds were tested in a first trial. A larger number of compounds were tested in a second trial. The assessment was based on the % control of plant growth in each cell.

Lolium perenne [2] = assay: as above; details: 168 h, second trial (Table 2), Lollium, assessed 7 days after treatment, read-out: % control of plant growth; for pest or weed control at 200 g/ha: 0.2 kg/ha; for pest or weed control at 1000 g/ha: 1 kg/ha; for pest or weed control at 5000 g/ha: 5 kg/ha
Description: as §1

[3] = tested on: Stellaria media—Chickweed; assay: Post-emergence herbicidal assay, 96 cell trays, glasshouse; details: 168 h, second trial (Table 2), assessed 7 days after treatment, read-out: % control of plant growth; for pest or weed control at 200 g/ha: 0.2 kg/ha; for pest or weed control at 1000 g/ha: 1 kg/ha; for pest or weed control at 5000 g/ha: 5 kg/ha
Description: as §1

Lolium perenne [4] = assay: as above; details: 168 h, second trial (Table 2), Lollium, assessed 7 days after treatment, read-out: % control of plant growth; for pest or weed control at 200 g/ha: 0.2 kg/ha; for pest or weed control at 1000 g/ha: 1 kg/ha; for pest or weed control at 5000 g/ha: 5 kg/ha
Description: as §1

Row | Compound | pest or weed control at 200 g/ha [1] | pest or weed control at 1000 g/ha [1] | pest or weed control at 5000 g/ha [1] | pest or weed control at 200 g/ha (Lolium perenne [2]) | pest or weed control at 1000 g/ha (Lolium perenne [2]) | pest or weed control at 5000 g/ha (Lolium perenne [2]) | pest or weed control at 200 g/ha [3] | pest or weed control at 1000 g/ha [3] | pest or weed control at 5000 g/ha [3] | pest or weed control at 200 g/ha (Lolium perenne [4]) | pest or weed control at 1000 g/ha (Lolium perenne [4]) | pest or weed control at 5000 g/ha (Lolium perenne [4])
1 | C#CCN1C(=O)C2(CC2)Oc2cc(F)c(N3C(=O)c4ccccc4C3=O)cc21 [Example 7] | 80 to 100% | 80 to 100% | 80 to 100% | 20 to 80% | 80 to 100% | 80 to 100% | 80 to 100% | 80 to 100% | 80 to 100% | < 20% | 20 to 80% | 20 to 80%
2 | C#CCN1C(=O)C2(CC2)Oc2cc(F)c(N3C(=O)c4ccc(O)cc4C3=O)cc21 [Example 9] | < 20% | < 20% | 20 to 80% | < 20% | < 20% | 20 to 80% | < 20% | < 20% | 20 to 80% | < 20% | < 20% | 20 to 80%
3 | C#CCN1C(=O)C2(CC2)Oc2cc(F)c(N3C(=O)c4ccc(OC)cc4C3=O)cc21 [Example 10] | 20 to 80% | 80 to 100% | 80 to 100% | < 20% | < 20% | < 20% | 20 to 80% | 80 to 100% | 80 to 100% | < 20% | < 20% | < 20%
4 | C#CCN1C(=O)C2(CC2)Oc2cc(F)c(N3C(=O)C4CC4C3=O)cc21 (stereo not drawn) [Example 13] | 20 to 80% | 80 to 100% | 80 to 100% | < 20% | < 20% | 20 to 80% | 80 to 100% | 80 to 100% | 80 to 100% | < 20% | < 20% | < 20%
5 | C#CCN1C(=O)C2(CC2)Oc2cc(F)c(N3C(=O)C=C(C(F)(F)F)C3=O)cc21 [Example 14] | < 20% | < 20% | < 20% | < 20% | < 20% | < 20% | < 20% | < 20% | < 20% | < 20% | < 20% | < 20%
6 | COC(=O)C(C)N1C(=O)C2(CC2)Oc2cc(F)c(N3C(=O)c4ccc(F)cc4C3=O)cc21 (stereo not drawn) [Example 16] | 80 to 100% | 80 to 100% | 80 to 100% | < 20% | 20 to 80% | 20 to 80% | 80 to 100% | 80 to 100% | 80 to 100% | 20 to 80% | 20 to 80% | 80 to 100%
7 | COC(=O)C(C)N1C(=O)C2(CC2)Oc2cc(F)c(N3C(=O)C=C(C(F)(F)F)C3=O)cc21 (stereo not drawn) [Example 17] | 20 to 80% | 20 to 80% | 80 to 100% | < 20% | 20 to 80% | 20 to 80% | < 20% | 20 to 80% | 20 to 80% | < 20% | < 20% | < 20%
8 | CCOC(=O)C(C)N1C(=O)C2(CC2)Oc2cc(F)c(N3C(=O)C=C(C(F)(F)F)C3=O)cc21 (stereo not drawn) [Example 20] | < 20% | 20 to 80% | 20 to 80% | < 20% | < 20% | < 20% | 20 to 80% | 80 to 100% | 80 to 100% | < 20% | < 20% | < 20%
9 | CCCN1C(=O)C2(CC2)Oc2cc(F)c(N3C(=O)c4ccc(F)cc4C3=O)cc21 [Example 22] | 80 to 100% | 80 to 100% | 80 to 100% | < 20% | 20 to 80% | 20 to 80% | 80 to 100% | 80 to 100% | 80 to 100% | 20 to 80% | 20 to 80% | 80 to 100%
10 | C#CCN1C(=O)C2(CCC2)Oc2cc(F)c(N3C(=O)c4ccc(F)cc4C3=O)cc21 [Example 23] | < 20% | 80 to 100% | 80 to 100% | < 20% | < 20% | 20 to 80% | 80 to 100% | 80 to 100% | 80 to 100% | < 20% | < 20% | < 20%
11 | C#CCN1C(=O)C2(CCC2)Oc2cc(F)c(N3C(=O)C=C(C(F)(F)F)C3=O)cc21 [Example 24] | < 20% | 20 to 80% | 20 to 80% | < 20% | 20 to 80% | 20 to 80% | < 20% | < 20% | < 20% | < 20% | < 20% | < 20%
12 | C#CCN1C(=O)C2(CN(C(=O)OCc3ccccc3)C2)Oc2cc(F)c(N3C(=O)c4ccc(F)cc4C3=O)cc21 [Example 25] | 20 to 80% | 20 to 80% | 20 to 80% | < 20% | < 20% | < 20% | < 20% | < 20% | < 20% | < 20% | < 20% | < 20%
13 | O=C1c2ccc(F)cc2C(=O)N1c1cc2c(cc1F)OC1(CC1)C(=O)N2CC#CI [Example 30, 5-Fluoro-2-(7-fluoro-4-(3-iodoprop-2-yn-1-yl)-3-oxo-3,4-dihydrospiro[benzo[b][1,4]oxazine-2,1′-cyclopropan]-6-yl)isoindoline-1,3-dione] | 80 to 100% | 80 to 100% | 80 to 100% | 20 to 80% | 20 to 80% | 80 to 100% | 80 to 100% | 80 to 100% | 80 to 100% | < 20% | < 20% | < 20%
14 | C#CCN1C(=O)C2(CCC2)Oc2cc(F)c(-n3c(=O)cc(C(F)(F)F)[nH]c3=O)cc21 [Example 33, 3-(7-Fluoro-3-oxo-4-(prop-2-yn-1-yl)-3,4-dihydrospiro[benzo[b][1,4]oxazine-2,1′-cyclobutan]-6-yl)-6-(trifluoromethyl)pyrimidine-2,4(1H,3H)-dione] | < 20% | 20 to 80% | 20 to 80% | < 20% | < 20% | < 20% | < 20% | < 20% | 20 to 80% | < 20% | < 20% | < 20%
15 | CC(C(=O)O)N1C(=O)C2(CC2)Oc2cc(F)c(N3C(=O)c4ccc(F)cc4C3=O)cc21 (stereo not drawn) [Example 35] | < 20% | 20 to 80% | 20 to 80% | < 20% | 20 to 80% | 20 to 80% | 80 to 100% | 80 to 100% | 80 to 100% | < 20% | 20 to 80% | 20 to 80%
